Experimental data: PubChem BioAssay AID2060503 (Molecular Pharmacology Branch, DTP, NCI, 2025)

Tested on: 817829-284-R-J1-PDC complex spheroids, viability
Test: Anticancer human tumor 817829-284-R-J1-PDC patient-derived colon adenocarcinoma cell line growth inhibition [GQUAD]
Settings: for IC50: curve of first compound; for viability, T/C: stronger effect = lower value
Outline: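 Multi-cell-type spheroids of tumor cells with HUVEC and mesenchymal stem cells, treated with drug combinations. Concentrations descend in half-log steps from near clinical Cmax, or from 10 microM where Cmax is unknown; viability read-out.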

[1] = second compound 0.0316 µM, first compound 0.0316 µM
[2] = second compound 0.0316 µM, first compound 0.1 µM
[3] = second compound 0.0316 µM, first compound 0.316 µM
[4] = second compound 0.0316 µM, first compound 1 µM
[5] = second compound 0.0316 µM, first compound 3.16 µM
[6] = second compound 0.0316 µM, first compound 10 µM
[7] = second compound 0.1 µM, first compound 0.0316 µM
[8] = second compound 0.1 µM, first compound 0.1 µM
[9] = second compound 0.1 µM, first compound 0.316 µM
[10] = second compound 0.1 µM, first compound 1 µM
[11] = second compound 0.1 µM, first compound 3.16 µM
[12] = second compound 0.1 µM, first compound 10 µM
[13] = second compound 0.316 µM, first compound 0.0316 µM
[14] = second compound 0.316 µM, first compound 0.1 µM
[15] = second compound 0.316 µM, first compound 0.316 µM
[16] = second compound 0.316 µM, first compound 1 µM
[17] = second compound 0.316 µM, first compound 3.16 µM
[18] = second compound 0.316 µM, first compound 10 µM
[19] = second compound 1 µM, first compound 0.0316 µM
[20] = second compound 1 µM, first compound 0.1 µM
[21] = second compound 1 µM, first compound 0.316 µM
[22] = second compound 1 µM, first compound 1 µM
[23] = second compound 1 µM, first compound 3.16 µM
[24] = second compound 1 µM, first compound 10 µM
[25] = second compound 3.16 µM, first compound 0.0316 µM
[26] = second compound 3.16 µM, first compound 0.1 µM
[27] = second compound 3.16 µM, first compound 0.316 µM
[28] = second compound 3.16 µM, first compound 1 µM
[29] = second compound 3.16 µM, first compound 3.16 µM
[30] = second compound 3.16 µM, first compound 10 µM
[31] = second compound 10 µM, first compound 0.0316 µM
[32] = second compound 10 µM, first compound 0.1 µM
[33] = second compound 10 µM, first compound 0.316 µM
[34] = second compound 10 µM, first compound 1 µM
[35] = second compound 10 µM, first compound 3.16 µM
[36] = second compound 10 µM, first compound 10 µM
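Note: spheroids exposed to agents for 7 days before readout.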
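Throughout, for viability, T/C: percent viability relative to DMSO vehicle control taken as 100%.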

## C#Cc1c(F)ccc2cc(O)cc(-c3ncc4c(N5CC6CCC(C5)N6)nc(OCC56CCCN5CC(F)C6)nc4c3F)c12 (stereo unspecified) + CN(C)c1ccc(Nc2c3ccc(NC(=O)CCN4CCCC4)cc3nc3cc(NC(=O)CCN4CCCC4)ccc23)cc1
Second compound 0.0316 µM
  IC50: > 10 µM
Second compound 0.1 µM
  IC50: > 10 µM
Second compound 0.316 µM
  IC50: > 10 µM
Second compound 1 µM
  IC50: > 10 µM
Second compound 3.16 µM
  IC50: > 10 µM
Second compound 10 µM
  IC50: 4.69 µM
[1]
  viability, T/C: 120%
[2]
  viability, T/C: 98.2%
[3]
  viability, T/C: 96%
[4]
  viability, T/C: 98.1%
[5]
  viability, T/C: 117%
[6]
  viability, T/C: 121%
[7]
  viability, T/C: 95.5%
[8]
  viability, T/C: 106%
[9]
  viability, T/C: 95.8%
[10]
  viability, T/C: 98.4%
[11]
  viability, T/C: 114%
[12]
  viability, T/C: 116%
[13]
  viability, T/C: 111%
[14]
  viability, T/C: 105%
[15]
  viability, T/C: 97.9%
[16]
  viability, T/C: 106%
[17]
  viability, T/C: 101%
[18]
  viability, T/C: 118%
[19]
  viability, T/C: 96.1%
[20]
  viability, T/C: 97%
[21]
  viability, T/C: 113%
[22]
  viability, T/C: 97.8%
[23]
  viability, T/C: 105%
[24]
  viability, T/C: 105%
[25]
  viability, T/C: 107%
[26]
  viability, T/C: 112%
[27]
  viability, T/C: 102%
[28]
  viability, T/C: 110%
[29]
  viability, T/C: 117%
[30]
  viability, T/C: 101%
[31]
  viability, T/C: 107%
[32]
  viability, T/C: 116%
[33]
  viability, T/C: 87.4%
[34]
  viability, T/C: 94%
[35]
  viability, T/C: 61.5%
[36]
  viability, T/C: 24.5%

## CC(=O)O[C@H]1C(=O)[C@@]2(C)[C@H]([C@H](OC(=O)c3ccccc3)[C@]3(O)C[C@H](OC(=O)[C@H](O)[C@@H](NC(=O)c4ccccc4)c4ccccc4)C(C)=C1C3(C)C)[C@]1(OC(C)=O)CO[C@@H]1C[C@@H]2O + CN(C)c1ccc(Nc2c3ccc(NC(=O)CCN4CCCC4)cc3nc3cc(NC(=O)CCN4CCCC4)ccc23)cc1
Second compound 0.0316 µM
  IC50: < 0.0316 µM
Second compound 0.1 µM
  IC50: < 0.0316 µM
Second compound 0.316 µM
  IC50: < 0.0316 µM
Second compound 1 µM
  IC50: < 0.0316 µM
Second compound 3.16 µM
  IC50: < 0.0316 µM
Second compound 10 µM
  IC50: < 0.0316 µM
[1]
  viability, T/C: 10.1%
[2]
  viability, T/C: 6.36%
[3]
  viability, T/C: 5.48%
[4]
  viability, T/C: 3.71%
[5]
  viability, T/C: 4.17%
[6]
  viability, T/C: 5.39%
[7]
  viability, T/C: 9.42%
[8]
  viability, T/C: 5.98%
[9]
  viability, T/C: 5.19%
[10]
  viability, T/C: 3.91%
[11]
  viability, T/C: 4.27%
[12]
  viability, T/C: 5.02%
[13]
  viability, T/C: 8.92%
[14]
  viability, T/C: 5.75%
[15]
  viability, T/C: 5.24%
[16]
  viability, T/C: 2.54%
[17]
  viability, T/C: 3.86%
[18]
  viability, T/C: 5.06%
[19]
  viability, T/C: 7.08%
[20]
  viability, T/C: 5.92%
[21]
  viability, T/C: 5.25%
[22]
  viability, T/C: 3.52%
[23]
  viability, T/C: 4.82%
[24]
  viability, T/C: 5.09%
[25]
  viability, T/C: 6.77%
[26]
  viability, T/C: 5.36%
[27]
  viability, T/C: 6.1%
[28]
  viability, T/C: 5.09%
[29]
  viability, T/C: 4.3%
[30]
  viability, T/C: 5.84%
[31]
  viability, T/C: 10.1%
[32]
  viability, T/C: 6.08%
[33]
  viability, T/C: 5.52%
[34]
  viability, T/C: 4.61%
[35]
  viability, T/C: 4.57%
[36]
  viability, T/C: 5.48%

## CCCS(=O)(=O)Nc1ccc(F)c(C(=O)c2c[nH]c3ncc(-c4ccc(Cl)cc4)cc23)c1F + CN(C)c1ccc(Nc2c3ccc(NC(=O)CCN4CCCC4)cc3nc3cc(NC(=O)CCN4CCCC4)ccc23)cc1
Second compound 0.0316 µM
  IC50: 5.75 µM
Second compound 0.1 µM
  IC50: 5.66 µM
Second compound 0.316 µM
  IC50: 5.88 µM
Second compound 1 µM
  IC50: 5.68 µM
Second compound 3.16 µM
  IC50: 5.32 µM
Second compound 10 µM
  IC50: 1.47 µM
[1]
  viability, T/C: 113%
[2]
  viability, T/C: 112%
[3]
  viability, T/C: 107%
[4]
  viability, T/C: 98.5%
[5]
  viability, T/C: 80.8%
[6]
  viability, T/C: 22.4%
[7]
  viability, T/C: 98.9%
[8]
  viability, T/C: 116%
[9]
  viability, T/C: 100%
[10]
  viability, T/C: 102%
[11]
  viability, T/C: 79.1%
[12]
  viability, T/C: 21.5%
[13]
  viability, T/C: 107%
[14]
  viability, T/C: 115%
[15]
  viability, T/C: 97.7%
[16]
  viability, T/C: 111%
[17]
  viability, T/C: 84%
[18]
  viability, T/C: 20.9%
[19]
  viability, T/C: 109%
[20]
  viability, T/C: 110%
[21]
  viability, T/C: 104%
[22]
  viability, T/C: 98%
[23]
  viability, T/C: 79.8%
[24]
  viability, T/C: 22.2%
[25]
  viability, T/C: 106%
[26]
  viability, T/C: 112%
[27]
  viability, T/C: 95.6%
[28]
  viability, T/C: 96.1%
[29]
  viability, T/C: 76.3%
[30]
  viability, T/C: 19.1%
[31]
  viability, T/C: 94.4%
[32]
  viability, T/C: 87.3%
[33]
  viability, T/C: 63.2%
[34]
  viability, T/C: 66.6%
[35]
  viability, T/C: 32.8%
[36]
  viability, T/C: 7.36%
